Columns and labels:
phage T7 = assay: Survivor population of phage T7 after sanitizer treatment; type: cell-based; conditions: 2 min, 4° C.
E. coli O157:H7 cells = type: cell-based, Escherichia coli O157:H7

SMILES: CC(=O)OO [PAA, peracetic acid]
- inactivation of phage T7 (phage T7; PAA at 80 ppm, 9 log inoculum level): more than 6 log
- complete inactivation of phages (phage T7; PAA up to 80 ppm, 9 log inoculum level): complete inactivation of phages (9 log inoculum level) was not observed
- further inactivation of E. coli O157:H7 with an increase of PAA concentration (E. coli O157:H7 cells): no significant inactivation
- inactivation of E. coli O157:H7 cells (E. coli O157:H7 cells): 2 log
- survivors of E. coli O157:H7 (E. coli O157:H7 cells): around 4 log

SMILES: OCl [chlorine, sodium hypochlorite]
- complete inactivation of inoculated phages (phage T7; lowest concentration tested, 2 ppm of free chlorine): complete inactivation of inoculated phages was observed

Source: patent US20220018836A1, “NON-LIVING SURROGATE INDICATORS AND METHODS FOR SANITATION VALIDATION” (priority 2018, published 2022)
